Test results published in PMC9599520, “The Membrane Activity of the Amphibian Temporin B Peptide Analog TB_KKG6K Sheds Light on the Mechanism That Kills Candida albicans” (mSphere, 2022).
Counter-ions that a name gives are not always drawn. Like-named read-outs stand apart in the source and are kept apart here. Where no end group is shown, it is not given here.

Experiments:
C. albicans (CBS 5982) = assay: microbe, parasite or virus in culture; type: cell-based, Candida albicans; settings: for IC90: Candida albicans, CBS5982, 24 h, 0.05× PDB, 30°C, 24 h, OD620, read-out: IC90 (inhibitory concentration that reduced growth by ≥90%)
C. albicans cells = assay: Uptake mechanism (fluorescence microscopy, 4°C or CCCP); type: cell-based, Candida albicans; settings: 2 μM
[1] = Vesicle leakage assay, PC-PS; type: biochemical; settings: PC-PS-LUVs; 32 μM peptide (1.5:1), negative control; 50 μM lipid, 30 min, 37°C; mean ± SD
[2] = Vesicle leakage assay, PC-PS-ergosterol; type: biochemical; settings: PC-PS-ergosterol-LUVs; 32 μM peptide (1.5:1), negative control; 50 μM lipid, 30 min, 37°C; mean ± SD
[3] = Vesicle leakage assay, PG-PE-CL; type: biochemical; settings: PG-PE-CL-LUVs; 32 μM peptide (1.5:1), negative control; 50 μM lipid, 30 min, 37°C; mean ± SD
[4] = Vesicle leakage assay (ANTS-DPX), all LUVs; type: biochemical; settings: 32 μM peptide, negative control, 1% Triton X-100 = 100%
[5] = Vesicle leakage assay, PC-ceramide; type: biochemical; settings: PC-ceramide-LUVs; 32 μM peptide (1.5:1), negative control; 50 μM lipid, 30 min, 37°C; mean ± SD
[6] = Vesicle leakage assay, PC-ergosterol; type: biochemical; settings: PC-ergosterol-LUVs; 32 μM peptide (1.5:1), negative control; 50 μM lipid, 30 min, 37°C; mean ± SD
[7] = Vesicle leakage assay, PG; type: biochemical; settings: PG-LUVs; 32 μM peptide (1.5:1), negative control; 50 μM lipid, 30 min, 37°C; mean ± SD
[8] = Vesicle leakage assay, PC-PE-ergosterol; type: biochemical; settings: PC-PE-ergosterol-LUVs; 32 μM peptide (1.5:1), negative control; 50 μM lipid, 30 min, 37°C; mean ± SD
[9] = Vesicle leakage assay, PC; type: biochemical; settings: PC-LUVs; 32 μM peptide (1.5:1), negative control; 50 μM lipid, 30 min, 37°C; mean ± SD
[10] = Vesicle leakage assay, PC-PE; type: biochemical; settings: PC-PE-LUVs; 32 μM peptide (1.5:1), negative control; 50 μM lipid, 30 min, 37°C; mean ± SD
[11] = Vesicle leakage assay, PC-CL; type: biochemical; settings: PC-CL-LUVs; 32 μM peptide (1.5:1), negative control; 50 μM lipid, 30 min, 37°C; mean ± SD
[12] = tested on: C. albicans cell membrane; assay: Membrane depolarization assay with DiSC3(5) dye; type: cell-based, Candida albicans; settings: 1 × 10^6 cells/mL, 30°C, 60 min, PCγ^C-terminal 32 μM
[13] = Vesicle leakage assay, PC-sphingomyelin; type: biochemical; settings: PC-sphingomyelin-LUVs; 32 μM peptide (1.5:1), negative control; 50 μM lipid, 30 min, 37°C; mean ± SD
[14] = Vesicle leakage assay, PC-PI; type: biochemical; settings: PC-PI-LUVs; 32 μM peptide (1.5:1), negative control; 50 μM lipid, 30 min, 37°C; mean ± SD
[15] = cited from earlier work

## CCCCCCCCN=c1ccn(CCCCCCCCCCn2ccc(=NCCCCCCCC)cc2)cc1 [Octenidine, N,N′-(1,10 decanediyldi-1[4H]-pyridinyl-4-ylidene)-bis-(1-octanamine) dihydrochloride]
C. albicans (CBS 5982); 1 × 10^4 cells/mL
  IC90: 1000 nM
C. albicans (CBS 5982); 1 × 10^6 cells/mL
  IC90: 2000 nM

## BODIPY-PAFB: P. chrysogenum antifungal protein B (PAFB) conjugated with the green fluorophore BODIPY; control for energy-dependent uptake (LSKFGGECSLKHNTCTYLKGGKNHVVNCGSAANKKCKSDRHHCEYDEHHKRVDCQTPV; cysteine pairing not given here; also: BODIPY label, position not given here; UniProt D0EXD3 35-92, looked up)
C. albicans cells; 30°C, standard condition, 45 min for BODIPY-PAFB
  uptake into C. albicans cells: taken up by C. albicans
C. albicans cells; 4°C, or 30°C with 100 μM CCCP, 15 min (FITC-TB_KKG6K), 45 min (BODIPY-PAFB)
  uptake into C. albicans cells with reduced respiration and metabolism: no internalization

## CGGASCRG [PCγ^C-terminal, negative control peptide CGGASCRG derived from the C-terminal part of Penicillium chrysogenum antifungal protein C (PAFC), reference compound]
[1]
  % Leakage: 0.9 ± 2.7%
[2]
  % Leakage: 2.0 ± 1.4%
[3]
  % Leakage: −1.2 ± 1.6%
[4]
  % Leakage: ≤ 2%
[5]
  % Leakage: 1.3 ± 0.2%
[6]
  % Leakage: 1.1 ± 0.9%
C. albicans (CBS 5982); peptide concentration 0 to 32 μM
  fungal growth inhibition: No fungal growth inhibition
[7]
  % Leakage: 1.9 ± 1%
[8]
  % Leakage: 1.7 ± 2.0%
[9]
  % Leakage: 1.4 ± 1.4%
[10]
  % Leakage: 1.4 ± 0.6%
[11]
  % Leakage: 0.7 ± 0.4%
[12]; TB analog 0.5, 1, 2 μM, Triton X-100 1% (wt/vol)
  membrane depolarization, DiSC3(5) fluorescence intensity: No membrane depolarization
[13]
  % Leakage: 0.6 ± 0.8%
[14]
  % Leakage: 0.4 ± 0.5%

## Temporin B [reference compound]
[15]
  hydrophobicity (hydrophobic amino acids): 61%
[15]; pH 7
  positive net charge: +0.9

## Triton X-100 [reference compound]
[12]; […]
  membrane depolarization, DiSC3(5) fluorescence intensity: fast and sustained increase in fluorescence intensity
